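Briefly, cells in 96-well plates were exposed to five compound concentrations for 48 h, and endpoints were estimated by linear interpolation. GI50 is the concentration that inhibits growth by half. TGI is the concentration that stops growth completely.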
Key:
Assay in all cases: DTP human tumour cell line panel, 48 h
[1] = tested on: COLO 205 colon
[2] = tested on: SK-MEL-5 melanoma
[3] = tested on: EKVX NSCLC
[4] = tested on: 786-0 renal
[5] = tested on: NCI/ADR-RES ovarian
[6] = tested on: DU-145 prostate
[7] = tested on: A498 renal
[8] = tested on: UO-31 renal
[9] = tested on: OVCAR-3 ovarian
[10] = tested on: UACC-62 melanoma
[11] = tested on: CAKI-1 renal
[12] = tested on: M14 melanoma
[13] = tested on: OVCAR-4 ovarian
[14] = tested on: SN12C renal
[15] = tested on: SF-295 CNS
[16] = tested on: HOP-62 NSCLC
[17] = tested on: HT29 colon
[18] = tested on: SK-MEL-28 melanoma
[19] = tested on: PC-3 prostate
[20] = tested on: HS 578T breast
[21] = tested on: NCI-H226 lung
[22] = tested on: NCI-H23 lung
[23] = tested on: A549 NSCLC
[24] = tested on: HOP-92 NSCLC
[25] = tested on: IGROV1 ovarian
[26] = tested on: SF-268 CNS
[27] = tested on: SNB-19 CNS
[28] = tested on: HCT-15 colon
[29] = tested on: KM12 colon
[30] = tested on: CCRF-CEM leukemia
[31] = tested on: HCT-116 colon
[32] = tested on: NCI-H460 lung
[33] = tested on: SW-620 colon
[34] = tested on: UACC-257 melanoma
[35] = tested on: ACHN renal
[36] = tested on: HCC-2998 colon
[37] = tested on: MDA-N
[38] = tested on: MDA-MB-231 breast
[39] = tested on: SF-539 CNS
[40] = tested on: BT-549 breast
[41] = tested on: SK-MEL-2 melanoma
[42] = tested on: T-47D breast
[43] = tested on: LOX IMVI melanoma
[44] = tested on: SNB-75 CNS
[45] = tested on: MDA-MB-435
[46] = tested on: RPMI-8226 leukemia
[47] = tested on: U251 CNS
[48] = tested on: TK-10 renal
[49] = tested on: SK-OV-3 ovarian
[50] = tested on: RXF 393 renal
[51] = tested on: MOLT-4 leukemia
[52] = tested on: OVCAR-5 ovarian
[53] = tested on: SR leukemia
[54] = tested on: MCF7 breast
[55] = tested on: NCI-H522 lung
[56] = tested on: HL-60(TB) leukemia
[57] = tested on: K-562 leukemia
[58] = tested on: OVCAR-8 ovarian
[59] = tested on: MALME-3M melanoma

`CN(CCCNC(=O)c1cn(C)c2c1ccc1ccccc12)CCCNC(=O)c1cn(C)c2c1ccc1ccccc12` gave a TGI [1] of 5.07 µM, a TGI [2] of 3.33 µM and a TGI [3] of 3.42 µM. The TGI [4] was 4.5 µM, the TGI [5] was 3.34 µM and the TGI [6] was 3.08 µM. For the same compound, the TGI [7] was 47.9 µM, the TGI [8] was 2.75 µM and the TGI [9] was 2.84 µM. The TGI [10] was 4.68 µM, the TGI [11] was 2.87 µM and the TGI [12] was 2.92 µM. For the same compound, the TGI [13] was 27.3 µM, the TGI [14] was 2.71 µM and the TGI [15] was 16.8 µM. For the same compound, the TGI [16] was 2.95 µM, the TGI [17] was 2.89 µM and the TGI [18] was 3.67 µM. For the same compound, the TGI [19] was 2.83 µM, the TGI [20] was 3.19 µM and the TGI [21] was 12 µM. For the same compound, the TGI [22] was 2.95 µM, the TGI [23] was 2.62 µM and the TGI [24] was 3.57 µM. It also gave a TGI [25] of 2.31 µM, a TGI [26] of 3.05 µM and a TGI [27] of 5.65 µM. The TGI [28] was 3.38 µM, the TGI [29] was 2.96 µM and the TGI [30] was over 100 µM. For the same compound, the TGI [31] was 3.12 µM, the TGI [32] was 2.83 µM and the TGI [33] was 6.41 µM. It also gave a TGI [34] of 3.06 µM, a TGI [35] of 3.33 µM and a TGI [36] of 2.7 µM. The TGI [37] was 2.76 µM.

For `CN(C)C[C@@H]1CCn2cc(c3ccccc32)C2=C(C(=O)NC2=O)c2cn(c3ccccc23)CCO1`, the GI50 [38] was 1.68 µM, the TGI [38] was 9.49 µM and the GI50 [1] was 1.03 µM. For the same compound, the TGI [1] was over 10 µM, the GI50 [2] was 1.39 µM and the TGI [2] was 7.11 µM. The GI50 [3] was 3.92 µM, the TGI [3] was over 10 µM and the GI50 [4] was 1.78 µM. It also gave a TGI [4] of 3.93 µM, a GI50 [5] of 2.58 µM and a TGI [5] of over 10 µM. For the same compound, the GI50 [6] was 2.75 µM, the TGI [6] was over 10 µM and the GI50 [39] was 1.08 µM. The TGI [39] was 2.45 µM, the GI50 [7] was 1.13 µM and the TGI [7] was 4.54 µM. The GI50 [8] was 0.539 µM, the TGI [8] was 3.23 µM and the GI50 [9] was 2.65 µM. It also gave a TGI [9] of over 10 µM, a GI50 [10] of 0.792 µM and a TGI [10] of over 10 µM. The GI50 [11] was 1.36 µM, the TGI [11] was over 10 µM and the GI50 [40] was 1.41 µM. The TGI [40] was 9.57 µM, the GI50 [12] was 1.03 µM and the TGI [12] was over 10 µM. The GI50 [13] was 2.58 µM, the TGI [13] was over 10 µM and the GI50 [14] was 0.679 µM. For the same compound, the TGI [14] was 5.85 µM, the GI50 [15] was 3.3 µM and the TGI [15] was over 10 µM. The GI50 [41] was 2 µM, the TGI [41] was over 10 µM and the GI50 [42] was 0.828 µM. The TGI [42] was over 10 µM, the GI50 [16] was 2.54 µM and the TGI [16] was over 10 µM. For the same compound, the GI50 [43] was 1.63 µM, the TGI [43] was 3.44 µM and the GI50 [44] was 1.4 µM. For the same compound, the TGI [44] was 5.96 µM, the GI50 [45] was 1.46 µM and the TGI [45] was over 10 µM. The GI50 [17] was 3.32 µM, the TGI [17] was over 10 µM and the GI50 [46] was 1.13 µM. The TGI [46] was 4.02 µM, the GI50 [47] was 1.9 µM and the TGI [47] was over 10 µM. For the same compound, the GI50 [48] was 2.22 µM, the TGI [48] was over 10 µM and the GI50 [49] was 2.08 µM. It also gave a TGI [49] of over 10 µM, a GI50 [50] of 1.77 µM and a TGI [50] of 5.17 µM. It also gave a GI50 [18] of 1.03 µM, a TGI [18] of 8.13 µM and a GI50 [19] of 1.77 µM. For the same compound, the TGI [19] was over 10 µM, the GI50 [20] was 1.76 µM and the TGI [20] was 8.88 µM. For the same compound, the GI50 [51] was 1.95 µM, the TGI [51] was 5.59 µM and the GI50 [52] was 1.34 µM. The TGI [52] was over 10 µM, the GI50 [21] was 2 µM and the TGI [21] was over 10 µM. The GI50 [22] was 2.95 µM, the TGI [22] was over 10 µM and the GI50 [23] was 2.72 µM. The TGI [23] was over 10 µM, the GI50 [24] was 0.446 µM and the TGI [24] was 6.31 µM. For the same compound, the GI50 [25] was 1.3 µM, the TGI [25] was 8.49 µM and the GI50 [53] was 1.68 µM. The TGI [53] was 5.55 µM, the GI50 [26] was 4.1 µM and the TGI [26] was over 10 µM. For the same compound, the GI50 [27] was 4.49 µM, the TGI [27] was over 10 µM and the GI50 [28] was 1.61 µM. The TGI [28] was over 10 µM, the GI50 [29] was 1.82 µM and the TGI [29] was over 10 µM. For the same compound, the GI50 [54] was 1.74 µM, the TGI [54] was over 10 µM and the GI50 [30] was 0.459 µM. The TGI [30] was 2.73 µM, the GI50 [31] was 0.374 µM and the TGI [31] was 1.56 µM. For the same compound, the GI50 [32] was 1.48 µM, the TGI [32] was 5.73 µM and the GI50 [33] was 0.467 µM. For the same compound, the TGI [33] was 4.28 µM, the GI50 [55] was 0.763 µM and the TGI [55] was 7.31 µM. The GI50 [56] was 1.6 µM, the TGI [56] was 3.75 µM and the GI50 [34] was 2.08 µM. The TGI [34] was over 10 µM, the GI50 [57] was 0.916 µM and the TGI [57] was 3.37 µM. For the same compound, the GI50 [35] was 2.04 µM, the TGI [35] was over 10 µM and the GI50 [58] was 0.598 µM. For the same compound, the TGI [58] was 8.33 µM, the GI50 [59] was 1.17 µM and the TGI [59] was 5.01 µM. It also gave a GI50 [36] of 0.713 µM and a TGI [36] of over 10 µM.
